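1) Cells in 96-well plates. 2) Compound, 48 h, 5 concentrations. 3) Linear interpolation between surrounding doses. 4) Unreached endpoint = highest concentration. At the TGI there is no net growth.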
Columns and labels:
Assay in all cases: NCI-60 cell line screen, 48 h
COLO 205 colon = system: COLO 205 colon
T-47D breast = system: T-47D breast
HCT-15 colon = system: HCT-15 colon
OVCAR-8 ovarian = system: OVCAR-8 ovarian
M14 melanoma = system: M14 melanoma
KM12 colon = system: KM12 colon
UACC-62 melanoma = system: UACC-62 melanoma
MDA-N = system: MDA-N
DU-145 prostate = system: DU-145 prostate
SN12C renal = system: SN12C renal
UO-31 renal = system: UO-31 renal
SF-268 CNS = system: SF-268 CNS
U251 CNS = system: U251 CNS
NCI-H226 lung = system: NCI-H226 lung
SK-MEL-2 melanoma = system: SK-MEL-2 melanoma
NCI-H460 lung = system: NCI-H460 lung
UACC-257 melanoma = system: UACC-257 melanoma
SK-OV-3 ovarian = system: SK-OV-3 ovarian
OVCAR-4 ovarian = system: OVCAR-4 ovarian
EKVX NSCLC = system: EKVX NSCLC
MDA-MB-231 breast = system: MDA-MB-231 breast
CCRF-CEM leukemia = system: CCRF-CEM leukemia
HCT-116 colon = system: HCT-116 colon
786-0 renal = system: 786-0 renal
MCF7 breast = system: MCF7 breast
MDA-MB-435 = system: MDA-MB-435
SF-295 CNS = system: SF-295 CNS
MOLT-4 leukemia = system: MOLT-4 leukemia
SNB-75 CNS = system: SNB-75 CNS
TK-10 renal = system: TK-10 renal
A549 NSCLC = system: A549 NSCLC
HT29 colon = system: HT29 colon
MALME-3M melanoma = system: MALME-3M melanoma
CAKI-1 renal = system: CAKI-1 renal
HL-60(TB) leukemia = system: HL-60(TB) leukemia
SW-620 colon = system: SW-620 colon
HOP-62 NSCLC = system: HOP-62 NSCLC
PC-3 prostate = system: PC-3 prostate
OVCAR-5 ovarian = system: OVCAR-5 ovarian
RXF 393 renal = system: RXF 393 renal
SNB-19 CNS = system: SNB-19 CNS
NCI-H23 lung = system: NCI-H23 lung
SK-MEL-28 melanoma = system: SK-MEL-28 melanoma
BT-549 breast = system: BT-549 breast
HS 578T breast = system: HS 578T breast
SR leukemia = system: SR leukemia
ACHN renal = system: ACHN renal
NCI/ADR-RES ovarian = system: NCI/ADR-RES ovarian
HCC-2998 colon = system: HCC-2998 colon
IGROV1 ovarian = system: IGROV1 ovarian
SK-MEL-5 melanoma = system: SK-MEL-5 melanoma
SF-539 CNS = system: SF-539 CNS
OVCAR-3 ovarian = system: OVCAR-3 ovarian
LOX IMVI melanoma = system: LOX IMVI melanoma
RPMI-8226 leukemia = system: RPMI-8226 leukemia
K-562 leukemia = system: K-562 leukemia

Q: What does the source list for `CCOP(=O)(OCC)C(C)(C)OC(=O)NC(F)(F)F`?
A: TGI (COLO 205 colon): > 100 µM; TGI (T-47D breast): > 100 µM; TGI (HCT-15 colon): > 100 µM; TGI (OVCAR-8 ovarian): > 100 µM; TGI (M14 melanoma): > 100 µM; TGI (KM12 colon): > 100 µM; TGI (UACC-62 melanoma): > 100 µM; TGI (MDA-N): > 100 µM; TGI (DU-145 prostate): > 100 µM; TGI (SN12C renal): > 100 µM; TGI (UO-31 renal): > 100 µM; TGI (SF-268 CNS): > 100 µM; TGI (U251 CNS): > 100 µM; TGI (NCI-H226 lung): 99.6 µM; TGI (SK-MEL-2 melanoma): > 100 µM; TGI (NCI-H460 lung): > 100 µM; TGI (UACC-257 melanoma): > 100 µM; TGI (SK-OV-3 ovarian): > 100 µM; TGI (OVCAR-4 ovarian): > 100 µM; TGI (EKVX NSCLC): > 100 µM; TGI (MDA-MB-231 breast): > 100 µM; TGI (CCRF-CEM leukemia): > 100 µM; TGI (HCT-116 colon): > 100 µM; TGI (786-0 renal): > 100 µM; TGI (MCF7 breast): > 100 µM; TGI (MDA-MB-435): > 100 µM; TGI (SF-295 CNS): > 100 µM; TGI (MOLT-4 leukemia): > 100 µM; TGI (SNB-75 CNS): > 100 µM; TGI (TK-10 renal): > 100 µM; TGI (A549 NSCLC): > 100 µM; TGI (HT29 colon): > 100 µM; TGI (MALME-3M melanoma): > 100 µM; TGI (CAKI-1 renal): > 100 µM; TGI (HL-60(TB) leukemia): > 100 µM; TGI (SW-620 colon): > 100 µM; TGI (HOP-62 NSCLC): > 100 µM; TGI (PC-3 prostate): > 100 µM; TGI (OVCAR-5 ovarian): > 100 µM; TGI (RXF 393 renal): > 100 µM; TGI (SNB-19 CNS): > 100 µM; TGI (NCI-H23 lung): > 100 µM; TGI (SK-MEL-28 melanoma): > 100 µM; TGI (BT-549 breast): > 100 µM; TGI (HS 578T breast): > 100 µM; TGI (SR leukemia): > 100 µM; TGI (ACHN renal): > 100 µM; TGI (NCI/ADR-RES ovarian): > 100 µM; TGI (HCC-2998 colon): > 100 µM; TGI (IGROV1 ovarian): > 100 µM; TGI (SK-MEL-5 melanoma): > 100 µM; TGI (SF-539 CNS): > 100 µM; TGI (OVCAR-3 ovarian): > 100 µM; TGI (LOX IMVI melanoma): > 100 µM; TGI (RPMI-8226 leukemia): > 100 µM; TGI (K-562 leukemia): > 100 µM

From PubChem BioAssay (NCI)
